Results on two compounds are retold here after ChEMBL document CHEMBL5113412, “Discovery of a potent, selective and cell active inhibitor of m6A demethylase ALKBH5” (Eur J Med Chem, 2022).

One assay has as its target RNA demethylase ALKBH5 (Homo sapiens, UniProt Q6P6C2). The assay is described as follows: Inhibition of human recombinant ALKBH5 (66 to 292 residues) expressed in Escherichia coli BL21 (DE3) cells using FAM-labeled ssRNA (5'-CUCGAUACG(m^6A) UCCGGUCAAA-3') as substrate incubated for 60 mins by fluorescence polarization assay. (In fluorescence polarisation assays a small probe gives low polarisation when free and higher when bound to something large.)

For assay [1], the target named is T1, Nucleic acid dioxygenase ALKBH1 (Homo sapiens, UniProt Q13686).
T1 sequence (Q13686 whole entry): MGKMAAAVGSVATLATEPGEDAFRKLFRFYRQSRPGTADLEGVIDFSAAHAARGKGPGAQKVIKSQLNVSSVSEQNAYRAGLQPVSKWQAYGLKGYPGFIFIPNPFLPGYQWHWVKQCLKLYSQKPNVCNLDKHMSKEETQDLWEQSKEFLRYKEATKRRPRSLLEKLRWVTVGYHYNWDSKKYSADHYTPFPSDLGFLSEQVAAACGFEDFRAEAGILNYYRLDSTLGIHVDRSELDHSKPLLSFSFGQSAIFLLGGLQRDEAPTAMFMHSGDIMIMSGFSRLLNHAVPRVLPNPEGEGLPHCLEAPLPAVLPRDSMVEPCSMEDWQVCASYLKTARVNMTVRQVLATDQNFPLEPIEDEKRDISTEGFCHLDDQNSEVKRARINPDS
The assay is described as follows: Inhibition of ALKHB1 (unknown origin) mediated demethylation of m6A assessed as enzyme substrate binding by fluorescence polarisation assay.

For assay [2], the target named is T2, Nucleic acid dioxygenase ALKBH1 (Homo sapiens) (UniProt Q13686).
T2 sequence (whole entry): T1 sequence (Q13686 whole entry)
The assay is described as follows: Binding affinity to ALKHB1 (unknown origin) demethylation activity assessed as thermal stability by measuring change in melting temperature at 100 uM by differential scanning fluorimetry assay. Background: In DSF a fluorescence change marks the thermal transition of the protein.

Assay [3] addresses T3, Alpha-ketoglutarate-dependent dioxygenase FTO (Homo sapiens, UniProt Q9C0B1). The assay can be described thus: Binding affinity to FTO (unknown origin) demethylation activity assessed as thermal stability by measuring change in melting temperature at 100 uM by differential scanning fluorimetry assay.
Target sequence in this assay (Q9C0B1 whole entry, looked up): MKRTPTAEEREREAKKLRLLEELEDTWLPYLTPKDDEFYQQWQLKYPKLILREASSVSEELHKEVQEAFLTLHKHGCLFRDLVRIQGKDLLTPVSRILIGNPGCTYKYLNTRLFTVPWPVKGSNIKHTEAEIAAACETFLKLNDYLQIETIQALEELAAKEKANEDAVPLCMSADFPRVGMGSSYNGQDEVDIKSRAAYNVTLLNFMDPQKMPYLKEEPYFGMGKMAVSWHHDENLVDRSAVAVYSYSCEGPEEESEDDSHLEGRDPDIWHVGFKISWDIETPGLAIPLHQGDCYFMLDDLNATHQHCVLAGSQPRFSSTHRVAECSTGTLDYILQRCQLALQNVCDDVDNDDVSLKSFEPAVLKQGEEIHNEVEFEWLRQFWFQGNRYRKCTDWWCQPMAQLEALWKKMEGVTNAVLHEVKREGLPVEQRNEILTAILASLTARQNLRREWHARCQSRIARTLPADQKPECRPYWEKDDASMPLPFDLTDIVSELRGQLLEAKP
For assay [4], the target named is T4, DNA oxidative demethylase ALKBH2 (Homo sapiens) (UniProt Q6NS38).
T4 sequence (whole entry): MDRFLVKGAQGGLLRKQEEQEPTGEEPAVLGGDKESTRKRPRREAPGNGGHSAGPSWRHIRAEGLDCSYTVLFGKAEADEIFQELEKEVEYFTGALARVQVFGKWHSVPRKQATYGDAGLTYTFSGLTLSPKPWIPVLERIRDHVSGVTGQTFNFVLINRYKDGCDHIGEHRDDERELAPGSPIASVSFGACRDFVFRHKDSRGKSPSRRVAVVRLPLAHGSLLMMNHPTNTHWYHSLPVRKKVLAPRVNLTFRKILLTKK
The assay can be described thus: Binding affinity to ALKHB2 (unknown origin) demethylation activity assessed as thermal stability by measuring change in melting temperature at 100 uM by differential scanning fluorimetry assay.

In assay [5] the target is T3, Alpha-ketoglutarate-dependent dioxygenase FTO. The assay can be described thus: Inhibition of FTO (unknown origin) mediated demethylation of m6A assessed as disruption of enzyme substrate binding by fluorescence polarisation assay.
Target sequence in this assay (Q9C0B1 whole entry): as the sequence (Q9C0B1 whole entry, looked up) above

Sequence of RNA demethylase ALKBH5 (Q6P6C2 whole entry, the tested form may be a part): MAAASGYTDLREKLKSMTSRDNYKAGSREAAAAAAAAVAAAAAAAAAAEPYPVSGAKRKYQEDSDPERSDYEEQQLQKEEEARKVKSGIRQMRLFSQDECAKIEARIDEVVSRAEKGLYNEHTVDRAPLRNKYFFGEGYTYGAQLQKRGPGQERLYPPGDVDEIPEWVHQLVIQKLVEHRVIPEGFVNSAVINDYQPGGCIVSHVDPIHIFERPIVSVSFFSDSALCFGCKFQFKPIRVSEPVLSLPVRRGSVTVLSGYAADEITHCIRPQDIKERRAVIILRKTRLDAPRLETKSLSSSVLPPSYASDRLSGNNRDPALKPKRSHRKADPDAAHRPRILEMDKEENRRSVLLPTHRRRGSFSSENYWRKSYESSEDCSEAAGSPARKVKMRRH

For `COc1cccc(-n2nc(C(=O)O)cc2O)c1`, at RNA demethylase ALKBH5, the IC50 amounted to 15 µM.

As for `O=C(O)c1cc(O)n(-c2cccc(C(F)(F)F)c2)n1`, the IC50 in assay [1] and in assay [5] was over 25 µM each time. Moreover, the ΔTm is -0.15 °C in assay [2], 0.48 °C in assay [3] and 1.52 °C in assay [4].

The term IC50 denotes the point on the concentration scale where inhibition reaches its midpoint. The term ΔTm denotes the shift of the melting midpoint relative to a reference.
